The test system of one data set is 293T cells. The experiment in a line: MTT cytotoxicity assay, normal cells. In kind it is cell-based. The settings on record: Homo sapiens, HEK-293T, read-out: IC50 293T. As to the method: (§1) The cytotoxicity of Rhein-DCA conjugate was performed on various cancer cell lines, including breast cancer (4T1 and MCF-7), cervical cancer (HeLa), and colorectal carcinoma (CT26) via 3-(4,5)-dimethylthiahiazo(-z-y1)-3,5-di-phenytetrazoliumromide (MTT) assay. […] Moreover, the cytotoxicity of these compounds (rhein, DCA, R + D and Rhein-DCA) for normal cells (293T) was lower than that of those tested cancer cells.
Mouse breast cancer 4T1 cells and Mouse colorectal carcinoma CT26 cells were purchased from Haixing Biosciences Co., Ltd (Jiangsu, P. R. China), and cultured in complete RPMI-1640 medium supplemented with 10% FBS and 1% Penicillin / Streptomycin in a cell incubator (37 °C in 95% air and 5% CO2 atmosphere). Human breast cancer MCF-7 cells, Human cervical carcinoma HeLa cells and Human embryonic kidney 293T cells were obtained from the China Center for Type Culture Collection (CCTCC). MCF-7 and HeLa cells were cultured in DMEM medium containing 10% FBS and 1% Penicillin / Streptomycin and then cultured in a cell incubator (37 °C in 95% air and 5% CO2 atmosphere).
The cytotoxicity of rhein, DCA, the mixture of rhein and DCA (R + D) and Rhein-DCA conjugate was evaluated on HeLa, MCF-7, CT26, 4T1 and 293T cell lines by MTT assay. Cells were seeded in 96-well plates at a density of 3 × 10^3 cells per well in the corresponding complete culture medium and cultured for 24 h. Then cells were incubated with 200 μL fresh medium containing the respective desired concentrations of rhein, DCA, R + D (with the concentrations being 100, 66.7, 44.4, 29.6, 19.8, 13.2, 8.8, 5.9, 3.9, 2.6, 1.7 and 1.2 μM, respectively) and Rhein-DCA conjugate (with the concentrations being 29.6, 19.8, 13.2, 8.8, 5.9, 3.9, 2.6, 1.7, 1.2, 0.8, 0.5 and 0.3 μM, respectively). After 72 h of incubation, 20 μL of MTT solution (5 mg/mL) was added to each well and the plates were cultured for another 4 h. The medium was carefully removed, and 110 μL of DMSO was added into per well to dissolve the formazan. The absorption densities at 590 nm were recorded with microplate reader. […]

Data set [1] has as its system phospho-Ser^293 PDHA1 protein in 4T1 cells. The experiment in a line: Western blot of phospho-Ser293 PDHA1. The settings on record: 6.25 μM, 24 h, vs control. It counts as cell-based, Mouse. As to the method: Then, the phospho-Ser^293 PDHA1 protein level in 4T1 cells, which is regulated by PDK1, was further analyzed with western blot (Figure 2C). […] The conjugate successfully altered glycolysis of 4T1 cells via PDK-PDH axis.
4T1 cells were seeded in 6-well plates at a density of 20 × 10^4 cells per well and cultured for 24 h. Then the cells were treated with rhein, DCA, R + D and Rhein-DCA conjugate, each at a concentration of 6.25 μM for 24 h. Cells were washed twice with PBS and lysed by RIPA total protein extraction solution containing multiple protease inhibitors for 30 min while being maintained on ice. The lysate was centrifuged at 9391 G for 10 min at 4 °C to obtain the total protein solution. The concentrations of total protein were determined with BCA Protein Assay Kit. The protein was further denatured with 5 × protein loading buffer at 100 °C for 15 min. Sodium dodecyl sulfate polyacrylamide gel electrophoresis was conducted to separate the protein and transferred it to PVDF membranes. The PVDF membranes were blocked with 5% skim milk for 30 min at room temperature and incubated with indicated primary antibodies: Anti-Cytochrome C Rabbit pAb (1:1000); Anti-β-actin Rabbit pAb (1:1000); or Anti-PDHA1 Rabbit mAb (phosphoS^293) (1:1000) overnight at 4 °C. The membranes were incubated with HRP conjugated Goat Anti-Rabbit IgG (H+L) (1:5000), respectively, for 30 min at room temperature and then analyzed by chemiluminescence (Clinx,6100).

For data set [2], the system named is 4T1, MCF-7, HeLa and CT26 cell lines. The experiment in a line: MTT cytotoxicity assay, statement over all tested cancer cell lines. It counts as cell-based. The conditions noted are these: for IC50: 72 h, read-out: IC50 in all tested cell lines. As to the method:
as §1
The cytotoxicity of rhein, DCA, the mixture of rhein and DCA (R + D) and Rhein-DCA conjugate was evaluated on HeLa, MCF-7, CT26, 4T1 and 293T cell lines by MTT assay. Cells were seeded in 96-well plates at a density of 3 × 10^3 cells per well in the corresponding complete culture medium and cultured for 24 h. Then cells were incubated with 200 μL fresh medium containing the respective desired concentrations of rhein, DCA, R + D (with the concentrations being 100, 66.7, 44.4, 29.6, 19.8, 13.2, 8.8, 5.9, 3.9, 2.6, 1.7 and 1.2 μM, respectively) and Rhein-DCA conjugate (with the concentrations being 29.6, 19.8, 13.2, 8.8, 5.9, 3.9, 2.6, 1.7, 1.2, 0.8, 0.5 and 0.3 μM, respectively). After 72 h of incubation, 20 μL of MTT solution (5 mg/mL) was added to each well and the plates were cultured for another 4 h. The medium was carefully removed, and 110 μL of DMSO was added into per well to dissolve the formazan. The absorption densities at 590 nm were recorded with microplate reader. The quoted IC50 values were presented as the mean ± standard deviation.
Background: Tetrazolium dyes change colour on reduction, which living cells bring about.

The next data set deals with 4T1 cells. The data set is described as follows: Scratch (migration) assay. The settings on record: 6.25 μM, 24 h. It counts as cell-based, Mouse. How it is done:
Cellular migration is the pivotal characteristic of cancer metastasis. […] Considering the inhibition of the glycolysis pathway resulting in a decrease of lactate, we studied the migration behavior of aggressive 4T1 cells in vitro. The results of scratch assay were shown in Figure S15, after being treated with different drugs for 24 h, the wound borders of 4T1 cells gradually got closer in control, rhein, DCA and R + D groups, and the migration rates reached approximately 40%.
4T1 cells were seeded in 6-well plate and incubated for 24 h. A straight scratch line across the cell monolayer was marked at the bottom of the plate with 200 μL pipette tip. Plate was washed twice with PBS to remove the detached cells. 6.25 μM of indicated drugs were added into each well, then the wound borders of cells were imaged at 0 h, 12 h and 24 h, respectively. The migration rate was calculated as follows: migration rate (%) = (initial scratch area - final scratch area) / initial scratch area × 100%, and the scratch area was processed with the Image J derivatives Fiji software.

Where [3] appears, read: 72 h treatment, MTT, normal cells, mean ± S.D., n = 3.

Like-named read-outs stand apart in the source and are kept apart here.

Consider `O=C(OCCOC(=O)C(Cl)Cl)c1cc(O)c2c(c1)C(=O)c1cccc(O)c1C2=O` [Rhein-DCA], for which the IC50 in the data set on 293T cells (setting [3]) amounted to 11.7 µM. For the same molecule, the “phospho-Ser293 PDHA1 protein level (western blot)” value (shortened to “phospho-Ser293 PDHA1 protein level”) in data set [1] was “lowest expression”. Besides, the “increase of cytotoxicity in comparison with individual rhein, DCA and their combination” value in data set [2] (all four cancer cell lines) is “at least 10 fold”. In the data set on 4T1 cells, the migration rate is listed as 8%.

With `O=C(O)C(Cl)Cl` [DCA, Dichloroacetate], the IC50 (in the data set on 293T cells (72 h); in data set [2]) was more than 100 µM throughout. In data set [1], the “phospho-Ser293 PDHA1 protein level” value is on record as “slightly downregulation”. Moreover, the migration rate entry with 4T1 cells is reported as “approximately 40%”.

On to `O=C(O)c1cc(O)c2c(c1)C(=O)c1cccc(O)c1C2=O` [Rhein, 4,5-dihydroxyanthraquinone-2-carboxylic acid], for which the IC50 was 126 ± 13.6 µM with 293T cells (setting [3]) and 40 to 80 µM in data set [2] (MTT, summary over the cell lines). The “phospho-Ser293 PDHA1 protein level” value in data set [1] is “no obvious down-regulated trend”. For the same molecule, the migration rate result in the data set with 4T1 cells is recorded as “approximately 40%”.

One may read the IC50 as the concentration needed to halve the response being measured.

The values are drawn from publication PMC12036875, “Mitochondria-targeting natural product rhein conjugated with dichloroacetate as the dual inhibitor of glycolysis and oxidative phosphorylation to off energize cancer cells and induce ROS storm” (Theranostics, 2025).
